The values below come from patent US3959252A, “Alkamoyl-josamycins” (Yamanouchi Pharmaceutical Co., Ltd., priority 1968, dated 1976).

In data set [1] the test system is Bacillus subtilis ATCC 6635. The data set is described as follows: MIC, agar dilution on nutrient agar. Format: cell-based. Conditions: ATCC6635, acetylated Josamycins as Josamycin equivalent, read-out: Minimum Inhibitory Concentration (MIC). The procedure:
(§1) Experimental procedure: Minimum inhibitory concentrations (MIC) were determined as to Josamycin, monoacetyl-josamycin-1, monoacetyl-josamycin-2and diacetyl-josamycin, according to usual agar dilution method on nutrient agar.
For orientation: In agar dilution the substance is mixed into plates at graded concentrations.

For the next data set, the system named is Escherichia coli PCI 602. The data set is described as follows: MIC, agar dilution on nutrient agar. Format: cell-based. The following applies: PCI602, acetylated Josamycins as Josamycin equivalent, read-out: Minimum Inhibitory Concentration (MIC). The procedure:
as §1

In another data set the test system is Mycobacterium 607. Briefly: MIC, agar dilution on nutrient agar. The data set is classed as cell-based. Conditions: acetylated Josamycins as Josamycin equivalent, read-out: Minimum Inhibitory Concentration (MIC). The procedure: as §1
The next data set deals with Salmonella typhi H 901W. Briefly: MIC, agar dilution on nutrient agar. The data set is classed as cell-based. The following applies: Salmonella enterica, read-out: Minimum Inhibitory Concentration (MIC). Here is the method: as §1
Data set [2] concerns Shigella flexneri 2a 1675. Briefly: MIC, agar dilution on nutrient agar. The data set is classed as cell-based. Conditions: 2A1675, acetylated Josamycins as Josamycin equivalent, read-out: Minimum Inhibitory Concentration (MIC). The procedure: as §1
Data set [3] deals with Staphylococcus aureus FDA 209P Smith. The data set is described as follows: MIC, agar dilution on nutrient agar. The data set is classed as cell-based. Conditions: FDA209P, acetylated Josamycins as Josamycin equivalent, read-out: Minimum Inhibitory Concentration (MIC). Here is the method: as §1
Data set [4] concerns Staphylococcus aureus FDA 209P. The data set is described as follows: MIC, agar dilution on nutrient agar. Format: cell-based. The following applies: FDA209P, acetylated Josamycins as Josamycin equivalent, read-out: Minimum Inhibitory Concentration (MIC). The procedure: as §1
The test system of data set [5] is Staphylococcus aureus PC, CP, TC, SA resistant. The data set is described as follows: MIC, agar dilution on nutrient agar. Format: cell-based. Conditions: acetylated Josamycins as Josamycin equivalent, read-out: Minimum Inhibitory Concentration (MIC). The procedure: as §1
Data set [6] concerns Staphylococcus aureus PC, SM, TC, EM, SA resistant. The data set is described as follows: MIC, agar dilution on nutrient agar. Format: cell-based. Conditions: acetylated Josamycins as Josamycin equivalent, read-out: Minimum Inhibitory Concentration (MIC). The procedure: as §1
Another data set in a line: pKa' measurement. Format: physicochemical. The following applies: 40% aqueous methanol. The text has this: 4. pKa' less than 6 (measured in 40% aqueous methanol)
4. pKa 7.03 (measured in 40% aqueous methanol)

Data set [7] concerns Staphylococcus aureus No. 226 strain. The data set is described as follows: Protection of mice from subcutaneous Staphylococcal infection. The following applies: 48 hours, control 88.2. Format: in vivo. Here is the method: Experimental procedure: Groups of 5 mice were inoculated subcutaneously in the back with 10^8 cells (in 0.1 ml volume) of Staphylococcus aureus No. 226 strain. Immediately after the infection, Josamycin or monoacetyl-josamycin-2 was administered orally. To the control group, no medicament was administered. After 48 hours, the animals were killed. The skin of the back of each mouse was cut open, and the size of subcutaneous abscess was measured.

Data set [8] relates to Staphylococcus aureus Smith. Briefly: Protection of mice from systemic staphylococcal infection. Format: in vivo. The following applies: 5 mice, control 0 of 10. The text has this: Experimental procedure: Group of 5 mice were inoculated intraperitoneally with 1000 MLD (containing 5% of mucin added) of Staphylococcus aureus Smith. Immediately after the infection, a single dose of each antibiotic was given orally. The survival of mice after 7 days was observed. The group for control (10 mice) was given no antibiotic.

For data set [9] the following is noted: Josamycin base, as described; cited from earlier work.
The conditions of data set [10]: titrated in aqueous methanol; base form; cited from earlier work.
Data set [11] deals with staphylococci resistant to streptothricin, telomycin, streptomycin, chloramphenicol, or penicillin. The following applies: cited from earlier work.
Setting [12] is: 200 mg/kg oral (as Josamycin equivalent).
[13] abbreviates: 50 mg/kg oral single dose (as Josamycin equivalent).
Where [14] appears, read: 150 mg/kg oral single dose (as Josamycin equivalent).
Where [15] appears, read: 500 mg/kg oral single dose (as Josamycin equivalent).

Like-named read-outs stand apart in the source and are kept apart here.

For orientation: pKa means the negative logarithm of the acid dissociation constant. As for `COC1C(OC(C)=O)CC(=O)OC(C)C/C=C/C=C/C(OC(C)=O)C(C)CC(CC=O)C1OC1OC(C)C(OC2CC(C)(O)C(OC(=O)CC(C)C)C(C)O2)C(N(C)C)C1OC(C)=O` (centres unmarked) [Diacetyl-josamycin, diacetyl-josamycin], the MIC is 0.39 µg/mL in [1]; over 100 µg/mL with Escherichia coli PCI 602; 3.1 µg/mL in the data set on Mycobacterium 607; over 100 µg/mL in the data set with Salmonella typhi H 901W; 50 µg/mL in data set [2]; 0.39 µg/mL in data set [3]. Besides, the results for the MIC in [4], in [5] and in data set [6] were 0.39 µg/mL, 0.78 µg/mL and over 100 µg/mL, respectively. In “pKa' measurement”, the pKa is under 6.

As for `CO[C@@H]1[C@@H](O[C@@H]2O[C@H](C)[C@@H](O[C@H]3C[C@@](C)(O)[C@@H](OC(=O)CC(C)C)[C@H](C)O3)[C@H](N(C)C)[C@H]2O)[C@@H](CC=O)C[C@@H](C)[C@@H](O)/C=C/C=C/C[C@@H](C)OC(=O)C[C@H]1OC(C)=O` [Josamycin], the MIC was 0.39 µg/mL in data set [1]; over 100 µg/mL in the data set with Escherichia coli PCI 602; 3.1 µg/mL with Mycobacterium 607; over 100 µg/mL with Salmonella typhi H 901W; 50 µg/mL in data set [2]; 0.39 µg/mL in data set [3]. Moreover, the values for the MIC in data set [4], in data set [5] and in data set [6] were 0.39 µg/mL, 0.78 µg/mL and over 100 µg/mL, respectively. Moreover, the Size of abscess was 21.2 mm^2 in [7] (50 mg/kg oral) and 4.19 mm^2 in data set [7] (setting [12]). For the same compound, the “Survival on 7th day (number of mice)” value in [8] (setting [13]) came out at 0; in [8] (setting [14]), 2; in data set [8] (setting [15]) it was 5. Moreover, the “Solubility (easily soluble solvents)” value in data set [9] was “easily soluble in acidic water, methanol, ethanol, chloroform, ethyl acetate, and acetone”. The “Solubility (slightly soluble solvents)” value in [9] is “slightly soluble in water, petroleum ether, ligroin, and n-hexane”. In addition, the “Solubility (soluble solvents)” value in data set [9] was “soluble in benzene, ether and carbon tetrachloride”. Further, in data set [10], the “pKa'” value was 7.1. In data set [11], the “Inhibition of growth of resistant staphylococci” value is listed as “inhibits the growth”.

As to `COC1C(OC(C)=O)CC(=O)OC(C)C/C=C/C=C/C(O)C(C)CC(CC=O)C1OC1OC(C)C(OC2CC(C)(O)C(OC(=O)CC(C)C)C(C)O2)C(N(C)C)C1OC(C)=O` (centres unmarked) [Monoacetyl-josamycin-1, 2'-acetyl-josamycin], the MIC in data set [1] was 0.39 µg/mL; in the data set on Escherichia coli PCI 602, over 100 µg/mL; in the data set on Mycobacterium 607, 3.1 µg/mL; in the data set on Salmonella typhi H 901W, over 100 µg/mL; in data set [2], 50 µg/mL; in [3] it was 0.39 µg/mL. The results for the MIC in [4], in [5] and in data set [6] were 0.39 µg/mL, 0.78 µg/mL and over 100 µg/mL, respectively. The pKa in “pKa' measurement” (read-out: pKa') is under 6. Also, the “Solubility (easily soluble solvents)” value in “Solubility” was “easily soluble in acetone, methylethylketone, chloroform, ethyl acetate and benzene”. Also, the “Solubility (hardly soluble solvents)” value in the data set “Solubility” is “hardly soluble in water, petroleum ether and n-hexane”. The “Solubility (soluble solvents)” value in the data set “Solubility” is “soluble in methanol and ethanol”.

With `COC1C(OC(C)=O)CC(=O)OC(C)C/C=C/C=C/C(OC(C)=O)C(C)CC(CC=O)C1OC1OC(C)C(OC2CC(C)(O)C(OC(=O)CC(C)C)C(C)O2)C(N(C)C)C1O` (centres unmarked) [Monoacetyl-josamycin-2, monoacetyl-josamycin-2], the MIC in data set [1] is 0.39 µg/mL; with Escherichia coli PCI 602 it was over 100 µg/mL; with Mycobacterium 607, 3.1 µg/mL; with Salmonella typhi H 901W, over 100 µg/mL; in data set [2], 50 µg/mL; in data set [3] it was 0.39 µg/mL. The results for the MIC in data set [4], in [5] and in data set [6] were 0.39 µg/mL, 0.78 µg/mL and over 100 µg/mL, respectively. Further, in [7] (setting [12]), the Size of abscess is reported as 0.64 mm^2. Moreover, the “Survival on 7th day (number of mice)” value in data set [8] (setting [13]) is 0; in data set [8] (setting [14]), 3; in data set [8] (setting [15]), 5. For the same compound, in the data set “pKa' measurement” (read-out: pKa'), the pKa was determined as 7.03. Further, the “Solubility (easily soluble solvents)” value in the data set “Solubility” was “easily soluble in acetone, chloroform, methanol, ethyl acetate and ethylether”. Further, the “Solubility (hardly soluble solvents)” value in the data set “Solubility” is “hardly soluble in water, petroleum ether and n-hexane”. The “Solubility (soluble solvents)” value in the data set “Solubility” was “soluble in carbon tetrachloride”.
